The text below walks through data of patent publication US20030060493A1, “Repinotan kit” (priority 2000, published 2003).

In the data set the test system is stroke or craniocerebral trauma. The experiment in a line: Clinical studies in healthy subjects and patients after stroke or craniocerebral trauma. It counts as in vivo, human.

Turning to `O=C1c2ccccc2S(=O)(=O)N1CCCCNCC1CCc2ccccc2O1` (stereo in doubt) [repinotan, 2-[4-({[(2R)-chroman-2-yl]methyl}amino)butyl]-1,2-benzisothiazol-3(2H)-one 1,1-dioxide], the “neurological and functional deficits” value (after 3 and 6 months respectively depending on indication) was “possible to improve the neurological and functional deficits”. For the same compound, the tolerability result (healthy subjects and patients after a stroke or craniocerebral trauma) is reported as “good tolerability”. The “result of treatment versus placebo” value (patients who reached blood plasma concentrations of about 5-20 μg/l) was “markedly better”.
